Measured values from patent US6514709B1, “High throughput screening by measurement of intracellular calcium levels” (Merck & Co., Inc., priority 2000, dated 2003).

Legend:
[1] = tested on: ionomycin-induced calcium influx; conditions: presence of BAPTA-AM; cited from earlier work
[2] = molecular target: T1, human growth hormone secretagogue receptor type 1a (hGHSR1A) (Homo sapiens, UniProt Q92847); test: Aequorin luminescence in hGHSR1A cells (WALLAC MICROBETA JET); assay type: cell-based; conditions: 30 μM BAPTA-AM, 100 nM ghrelin
T1 construct: expressed in transfected cells
T1 sequence (Q92847 whole entry): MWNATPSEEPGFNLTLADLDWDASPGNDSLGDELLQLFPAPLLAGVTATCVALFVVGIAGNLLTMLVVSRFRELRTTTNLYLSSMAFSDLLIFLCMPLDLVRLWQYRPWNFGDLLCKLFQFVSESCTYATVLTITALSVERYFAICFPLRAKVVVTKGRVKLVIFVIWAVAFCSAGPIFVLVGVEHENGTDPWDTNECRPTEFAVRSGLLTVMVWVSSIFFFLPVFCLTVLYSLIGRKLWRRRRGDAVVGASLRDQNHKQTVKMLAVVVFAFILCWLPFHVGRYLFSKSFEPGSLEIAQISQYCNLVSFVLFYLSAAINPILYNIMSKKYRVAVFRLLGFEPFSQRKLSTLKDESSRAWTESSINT
Procedure: Cells were charged with the aequorin substrate, coelenterazine h (MOLECULAR PROBES, #C-6780), by removing the growth media and incubating the cells with 75 μl of charge buffer (DMEM GIBCOBRL#12320-032; 0.1% FBS GEMINI BIO-PRODUCTS, Inc. #100-107; 5 μM coelenterazine h; 30 μM reduced glutathione) for 2 hours at 37° C., 10% CO^2. […] The cells were then washed and loaded with 100 μl of enriched-PBS with or without the indicated antagonist. […] In order to obtain more consistent kinetics, the Jet was set to simultaneously read only six wells per determination.

[3] = molecular target: T2, endogenous muscarinic receptor (Homo sapiens, UniProt P20309); test: Fluo-4 fluorescence calcium response in HEK-AEQ17 cells (VIPR); assay type: cell-based; conditions: 3 μM BAPTA-AM, muscimol (10 μM)
T2 construct: stimulated an endogenous muscarinic receptor; endogenous in cells; host or cells: parental HEK293 apoaequorin cells (293AEQ17 / HEK-AEQ17)
T2 sequence (P20309 whole entry): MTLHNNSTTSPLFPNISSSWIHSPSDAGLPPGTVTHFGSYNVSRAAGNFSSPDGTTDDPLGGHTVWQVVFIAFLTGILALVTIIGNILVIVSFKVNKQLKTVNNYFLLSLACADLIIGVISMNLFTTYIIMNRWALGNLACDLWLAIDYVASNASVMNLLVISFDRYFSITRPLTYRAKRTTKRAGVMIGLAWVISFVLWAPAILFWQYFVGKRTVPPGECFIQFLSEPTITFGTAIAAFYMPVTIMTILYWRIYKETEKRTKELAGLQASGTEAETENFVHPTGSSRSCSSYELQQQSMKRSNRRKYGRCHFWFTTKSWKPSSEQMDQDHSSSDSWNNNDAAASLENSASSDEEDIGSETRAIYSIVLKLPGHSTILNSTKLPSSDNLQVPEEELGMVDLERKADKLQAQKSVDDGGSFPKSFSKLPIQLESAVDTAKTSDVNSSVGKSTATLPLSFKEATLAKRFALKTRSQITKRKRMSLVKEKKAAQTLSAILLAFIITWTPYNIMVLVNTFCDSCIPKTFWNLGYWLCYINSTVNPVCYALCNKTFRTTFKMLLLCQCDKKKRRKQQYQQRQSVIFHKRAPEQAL
Procedure: The VIPR instrument was used to add agonist (in 100 μl enriched-PBS) after recording a 10 sec. baseline and the fluorescence was measured for up to 300 sec.
Muscimol stimulated an endogenous muscarinic receptor (Moriya, H., Takagi, Y., Nakanishi, T., Hayashi, M., Tani, T., and Hirotsu, I. (1999) Affinity profiles of various muscarinic antagonists for cloned human muscarinic acetylcholine receptor (MACHR) subtypes and MACHRS in rat heart and submandibular gland. Life Sciences 25 2351-2358; Caulfield, M. P. (1993) Muscarinic receptors-characterization, coupling and function. Pharmac. Ther. 58, 319-379)in HEK-AEQ17 cells which gave a robust fluorescence signal when measured with fluo-4 using the VIPR. The kinetics of this calcium transient was different from that measured for either the VR1 or hGHSR1a calcium transient. Activation with muscimol (10 μM) caused a fast transient response, followed by a slower response (FIG. 9A). The fast transient response was very sensitive to BAPTA, and was eliminated by low levels of the chelator (3 μM BAPTA-AM), but a fluorescence signal could be detected under these conditions that was stable for at least 3 minutes. At a higher BAPTA concentration (10 μM BAPTA-AM), the increase in fluorescence was very slow and had not yet stabilized even after 3 minutes.

[4] = molecular target: T1, human growth hormone secretagogue receptor type 1a (hGHSR1A); test: Fluo-4 fluorescence calcium response in hGHSR1a cells (VIPR); assay type: cell-based; conditions: 30 μM BAPTA-AM, 100 nM ghrelin
Procedure: Cells were grown to 80-95% confluence in tissue culture flasks (T-225, Corning) and harvested by trypsinization (Trypsin/EDTA, GIBCOBRL). Cells were dispensed (about 1×10^5 cells/0.2 ml/well) into 96-well black clear-bottom BIOCOAT poly-D-lysine plates (BECTON DICKENSON, Bedford, Mass.) in growth media and incubated overnight at 37° C. in a humidified incubator at 10% CO^2. […] Wells were washed two times with 100 μl of enriched-PBS, and then 100 μl enriched-PBS with or without antagonist was added for 15-30 minutes prior to assay on the AURORA fluorescence plate reader VIPR (ex. 480 nm, em. 535 nm). […] The VIPR instrument was used to add agonist (in 100 μl enriched-PBS) after recording a 10 sec. baseline and the fluorescence was measured for up to 300 sec.

[5] = molecular target: T3, rat VR1 capsaicin receptor (Rattus norvegicus, UniProt O35433); test: Fluo-3 fluorescence calcium response in VR1 cells (VIPR); assay type: cell-based
T3 construct: expressed in transfected cells
T3 sequence (O35433 whole entry): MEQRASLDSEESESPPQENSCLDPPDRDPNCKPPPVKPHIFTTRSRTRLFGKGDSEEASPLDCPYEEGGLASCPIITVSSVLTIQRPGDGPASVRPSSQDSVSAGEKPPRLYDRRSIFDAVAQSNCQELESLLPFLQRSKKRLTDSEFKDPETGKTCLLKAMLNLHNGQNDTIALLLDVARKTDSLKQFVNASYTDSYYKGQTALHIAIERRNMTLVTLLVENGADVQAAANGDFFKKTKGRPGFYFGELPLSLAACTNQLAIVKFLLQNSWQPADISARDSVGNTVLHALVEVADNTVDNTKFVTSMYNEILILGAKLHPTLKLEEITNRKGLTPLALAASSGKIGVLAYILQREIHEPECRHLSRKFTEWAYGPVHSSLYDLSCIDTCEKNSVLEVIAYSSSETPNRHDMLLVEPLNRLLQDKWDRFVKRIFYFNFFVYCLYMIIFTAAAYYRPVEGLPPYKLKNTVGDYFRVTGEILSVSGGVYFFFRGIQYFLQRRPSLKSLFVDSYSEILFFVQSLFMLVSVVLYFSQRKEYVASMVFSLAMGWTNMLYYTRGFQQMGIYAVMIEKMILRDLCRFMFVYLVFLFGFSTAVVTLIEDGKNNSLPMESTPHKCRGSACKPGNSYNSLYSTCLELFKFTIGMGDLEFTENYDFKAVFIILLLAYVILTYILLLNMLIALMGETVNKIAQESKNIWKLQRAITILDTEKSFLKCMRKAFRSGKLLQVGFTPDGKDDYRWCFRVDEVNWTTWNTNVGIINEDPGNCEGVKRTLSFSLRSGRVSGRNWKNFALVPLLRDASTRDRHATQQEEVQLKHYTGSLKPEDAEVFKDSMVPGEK
Procedure: (§1) Parental HEK293 cell lines expressing apoaequorin (293AEQ17 cells) were used to develop stable clonal cell lines expressing the rat VR1 capsaicin receptor (Caterina, M. J., Schumacher, M. A., Tominaga, M., Rosen, T. A., Levine, J. D., and Julius, D. (1997) The capsaicin receptor: a heat-activated ion channel in the pain pathway. Nature 389, 816-824). The VR1 293AEQ17 were maintained on growth media containing DMEM (GIBCOBRL, high glucose, with L-glutamine, with 110 mg/L sodium pyruvate, with pyridoxine HCl), 25 mM HEPES (GIBCOBRL, 1M stock), 0.5 mg/mL geneticin (GIBCOBRL, 50 mg/mL stock), 1 μg/mL puromycin (CLONTECH), and 10% fetal bovine serum (GEMINI BIO-PRODUCTS, heat inactivated) at 37° C., 10% CO^2.
Cells were grown to 80-95% confluence in tissue culture flasks (T-225, CORNING) and harvested by trypsinization (Trypsin/EDTA, GIBCOBRL). Cells were dispensed (about 1×10^5 cells/0.2 ml/well) into 96-well black clear-bottom BIOCOAT poly-D-lysine plates (BECTON DICKENSON, Bedford, Mass.) in growth media and incubated overnight at 37° C. in a humidified incubator at 10% CO^2. Cells were washed once with 200 μls of enriched PBS (Dulbecco's PBS (GIBCOBRL #14040-117), 10 mM HEPES, 2 g/L glucose; pH 7.2) and then incubated with 100 μl of 5 μM fluo-3-AM (MOLECULAR PROBES #F1241) with or without of 1,2-bis(o-aminophenoxy)ethane-N,N,N′,N′-tetraacetic acid tetra(acetoxymethyl) ester (BAPTA-AM, MOLECULAR PROBES #B 1205) in enriched PBS containing 0.02% pluronic F-127 (MOLECULAR PROBES #P-3000) for 30-70 minutes. Wells were washed two times with 100 μl of enriched-PBS, and then 100 μl enriched-PBS with or without antagonist was added for 15-30 minutes prior to assay on the AURORA fluorescence plate reader VIPR (ex. 480 nm, em. 535 nm). […] The calcium response was initiated by addition of 100 μl of the indicated concentration of capsaicin (SIGMA #M2028). The VIPR instrument was used to add agonist (in 100 μl enriched-PBS) after recording a 10 sec. baseline and the fluorescence was measured for up to 300 sec.
Changes in intracellular calcium were measured using the fluo-3 dye and detecting the kinetics of the response after addition of the VR1 agonist, capsaicin (0.5 uM) to cells expressing VR1 using a VIPR fluorescence plate reader (FIGS. 5 & 6A).

[6] = molecular target: T3, rat VR1 capsaicin receptor; test: Aequorin luminescence in VR1 cells (WALLAC MICROBETA JET); assay type: cell-based; conditions: for time to peak response: 0.5 μM capsaicin
Procedure: as §1, with “receptor.” for “receptor (Caterina, M. J., Schumacher, M. A., Tominaga, M., Rosen, T. A., Levine, J. D., and Julius, D. (1997) The capsaicin receptor: a heat-activated ion channel in the pain pathway. Nature 389, 816-824).”
Cells were grown to 80-95% confluence in tissue culture flasks (T-225, Corning) and harvested by trypsinization (Trypsin/EDTA, GIBCOBRL). Cells were dispensed (about 1×10^5 cells/0.2 ml/well) into 96-well white clear-bottom BIOCOAT poly-D-lysine plates (BECTON DICKENSON, Bedford, Mass.) in growth media and incubated overnight at 37° C. in a humidified incubator at 10% CO^2. Cells were charged with the aequorin substrate, coelenterazine h (MOLECULAR PROBES, #C-6780), by removing the growth media and incubating the cells with 75 μl of charge buffer (DMEM GIBCOBRL #12320-032; 0.1% FBS GEMINI BIO-PRODUCTS, Inc. #100-107;5 μM coelenterazine h; 30 μM reduced glutathione) for 2 hours at 37° C., 10% CO^2. The charge buffer was then removed and the cells were washed twice with 100 μl of enriched-PBS (pH 7.2) and then incubated with 100 μl of enriched-PBS supplemented with 0-30 μM BAPTA-AM for 30-120 min at 37° C., 10% CO^2. The cells were then washed and loaded with […] of enriched-PBS with or without the indicated antagonist. The calcium response was initiated by addition of 100 μl of the indicated concentration of capsaicin (SIGMA #M2028) to the wells by a WALLAC MICROBETA JET. In order to obtain more consistent kinetics, the Jet was set to simultaneously read only six wells per determination.
For these experiments, the kinetics of the flash luminescence were followed using a WALLAC MICROBETA JET luminometer that injects reagent and records light emission from six wells of a 96-well plate simultaneously.

[7] = tested on: ligand-gated calcium channel; test: Model aequorin-based functional cellular assay for a ligand-gated calcium channel; assay type: cell-based; conditions: BAPTA-AM 0-30 uM, after injection of agonist
Procedure: For this assay, HEK293 cells co-expressing the receptor of interest and apoaequorin were grown to confluence in BIOCOAT poly-D-lysine opaque white 96-well microtiter plates (BECTON DICKINSON). The cells were maintained on a standard growth media. The cells were charged with growth media supplemented with 5 uM of coelenterazine h (MOLECULAR PROBES, Eugene, Oreg.) for 2 hr at 37° C. in a humidified incubator at 5% CO2. The charged cells were then washed and loaded with assay buffer.
Addition of agonist caused the rapid and transient luminescent signal that was complete within 10-15 seconds (FIG. 1). The kinetics of the flash luminescent signal was followed by using a WALLAC MICROBETA JET instrument where agonist was injected directly into the wells containing the charged cells. As a buffering reagent the cell permeable acetoxymethyl ester BAPTA-AM was used. BAPTA is a specific calcium chelator that rapidly binds and releases calcium. […] A schematic representation of this assay appears in FIG. 2.
The addition of increasing levels of BAPTA-AM (0-30 uM) caused an initial delay in the aequorin-based luminescence signal upon injection of agonist and extended the signal far greater than 30 seconds (FIG. 1). The addition of a known receptor antagonist was able to completely block the signal (FIG. 3).

[8] = molecular target: T1, human growth hormone secretagogue receptor type 1a (hGHSR1A); test: Manual luminescence measurement in hGHSR1a cells, read 2 minutes after agonist; assay type: cell-based; conditions: 2 minutes after 100 nM ghrelin, with BAPTA
Procedure: Parental HEK293 cell lines expressing apoaequorin (293AEQ17 cells) were used to develop stable clonal cell lines expressing the human growth hormone secretagogue receptor type 1a (hGHSR1A).
Cells were charged with the aequorin substrate, coelenterazine h (MOLECULAR PROBES, #C-6780), by removing the growth media and incubating the cells with 75 μl of charge buffer (DMEM GIBCOBRL #12320-032; 0.1% FBS GEMINI BIO-PRODUCTS, Inc. #100-107;5 μM coelenterazine h; 30 μM reduced glutathione) for 2 hours at 37° C., 10% CO^2. […] The cells were then washed and loaded with 100 μl of enriched-PBS with or without the indicated antagonist. […] The WALLAC MICROBETA JET was used to measure 10 sec of luminescence after a delay of 2 minutes.
J. Med Chem. 43 4370-4376). […] After a lapse of two minutes, the plates were read using the WALLAC MICROBETA JET luminometer. […] These complex dose-response curves were observed both in the presence and absence of BAPTA. Yet overall, the addition of BAPTA increased the luminescence such that a 6-fold signal over background could be measured 2 minutes after stimulation with agonist.

[9] = molecular target: T3, rat VR1 capsaicin receptor; test: Manual luminescence measurement in VR1 cells, read 2 minutes after agonist; assay type: cell-based
Procedure: Parental HEK293 cell lines expressing apoaequorin (293AEQ17 cells) were used to develop stable clonal cell lines expressing the rat VR1 capsaicin receptor.
Cells were grown to 80-95% confluence in tissue culture flasks (T-225, Corning) and harvested by trypsinization (Trypsin/EDTA, GIBCOBRL). Cells were dispensed (about 1×10^5 cells/0.2 ml/well) into 96-well white clear-bottom BIOCOAT poly-D-lysine plates (BECTON DICKENSON, Bedford, Mass.) in growth media and incubated overnight at 37° C. in a humidified incubator at 10% CO^2.

[10] = 0.5 uM capsaicin, absence of BAPTA

## CC(=O)OCOC(=O)CN(CC(=O)OCOC(C)=O)c1ccccc1OCCOc1ccccc1N(CC(=O)OCOC(C)=O)CC(=O)OCOC(C)=O [BAPTA-AM, 1,2-bis(o-aminophenoxy)ethane-N,N,N′,N′-tetraacetic acid tetra(acetoxymethyl)ester]
[1]
  slowing of calcium transients: up to 8 fold
[2]
  luminescence signal relative to the response in the absence of BAPTA: about 5%
  time to reach the maximum light emission: 75 s
[3]
  duration of stable fluorescence signal: at least 3 minutes
  effect on fast transient response: eliminated
[4]
  duration of stable fluorescent signal: up to 5 minutes
  time to peak fluorescence response: 150 s
[5]; 3 μM BAPTA-AM for 30 minutes, 0.5 uM capsaicin
  time to peak fluorescence signal: about 40 sec
[5]; 3 μM BAPTA-AM, 0.5 uM capsaicin
  fluo-3 signal decay time: about 150 s
[5]; 10 and 30 μM BAPTA-AM, 0.5 uM capsaicin
  peak response time: up to 100 sec
[6]; 0 μM to 30 μM BAPTA-AM
  total signal at a given agonist concentration: did not significantly vary
[6]; 30 μM BAPTA-AM
  time to peak response: 10 s
[6]; BAPTA-AM 0-30 μM, 50 nM capsaicin, maximum time recorded
  duration of extended luminescence signal: up to 3 minutes
[6]; increasing BAPTA-AM 0-30 μM, 50 nM capsaicin
  time of maximum luminescence response: 30 s
[7]
  duration of extended luminescence signal: greater than 30 seconds

## O=C(O)CN(CC(=O)O)c1ccccc1OCCOc1ccccc1N(CC(=O)O)CC(=O)O [BAPTA]
[8]
  signal over background: 6 fold
[9]; 2 minutes after 0.5 uM capsaicin, with BAPTA
  signal over background: 4 fold
[5]; 3 μM BAPTA, 0.1 μM capsaicin
  effect on peak signal: decreased the peak signal

## COc1cc(CNC(=O)CCCC/C=C/C(C)C)ccc1O [capsaicin]
[5]; [10]
  time to decay to 50%: about 150 sec
  time to peak fluorescence response: about 20 sec
[6]; 50 nM capsaicin, no BAPTA
  time for luminescence signal to be largely complete: ≤ 30 s
  time to peak luminescence: about 10 sec
[6]; no BAPTA
  time to peak response: about 5 sec

## Oc1cc2c(cc1O)CN(C(=S)NCCc1ccc(Cl)cc1)CCC2 [capsazepine]
[9]; higher concentrations of antagonist, 0.5 uM capsaicin, with and without BAPTA
  block of luminescence signal: completely blocked
[5]; 20 μM capsazepine, 0.5 uM capsaicin
  block of capsaicin response: completely blocked
